# Read-outs that look alike come from different tables or passages of the source.
# Legend:
# [1] = system: MKN-45 (Gastric Adenocarcinoma); assay: Cell viability analysis, gastric cancer MKN-45; format: cell-based, human; conditions: Homo sapiens, MKN-45, 72 h
# [2] = system: HeLa (Cervix Adenocarcinoma); assay: Cell viability analysis, cervical cancer HeLa; format: cell-based, human; conditions: Homo sapiens, HeLa, 72 h, HeLa
# [3] = system: T24; assay: Cell viability analysis, bladder cancer T24; format: cell-based, human; conditions: Homo sapiens, T-24, 72 h; T24; repeated experiment; read-out: The results of antibiotic drug inhibiting cancer cell lines (cell viability analysis), T24
# [4] = system: cancer cell lines; assay: Cell viability analysis (WST-1) on cancer cell lines; format: cell-based, human; conditions: drug 10 μM, 72 hours, WST-1; Table 3
# [5] = system: C-33A (Cervical carcinoma); assay: Cell viability analysis, cervical cancer C-33A; format: cell-based, human; conditions: Homo sapiens, 72 h; C-33A; repeated experiment; read-out: The results of antibiotic drug inhibiting cancer cell lines (cell viability analysis), C-33A
# [6] = system: A549 (Lung Adenocarcinoma); assay: Cell viability analysis, lung cancer A549; format: cell-based, human; conditions: Homo sapiens, A549, 72 h
# [7] = system: Hep3B (hepatocellular carcinoma); assay: Cell viability analysis, hepatic cancer Hep3B; format: cell-based, human; conditions: Homo sapiens, 72 h; Hep3B; repeated experiment; read-out: The results of antibiotic drug inhibiting cancer cell lines (cell viability analysis), Hep3B
# [8] = system: MCF7 (Mammary Gland, Adenocarcinoma); assay: Cell viability analysis, breast cancer MCF7; format: cell-based, human; conditions: Homo sapiens, MCF7, 72 h
# [9] = system: HepG2 (Hepatocellular Carcinoma); assay: Cell viability analysis, hepatic cancer HepG2; format: cell-based, human; conditions: Homo sapiens, HepG2, 72 h
# [10] = system: NIH: OVCAR-3; assay: Cell viability analysis, ovarian cancer NIH: OVCAR-3; format: cell-based, human; conditions: Homo sapiens, 72 h; NIH-OVCAR-3; repeated experiment; read-out: The results of antibiotic drug inhibiting cancer cell lines (cell viability analysis), NIH-OVCAR-3
# [11] = system: SAS (Tongue squamous cell carcinoma); assay: Cell viability analysis, tongue cancer SAS; format: cell-based, human; conditions: Homo sapiens, 72 h; SAS; repeated experiment; read-out: The results of antibiotic drug inhibiting cancer cell lines (cell viability analysis), SAS
# [12] = system: HI650 (Lung Adenocarcinoma); assay: Cell viability analysis, lung cancer HI650; format: cell-based, human; conditions: Homo sapiens, NCI-H1650, 72 h
# [13] = system: AsPC-1; assay: Cell viability analysis, pancreatic cancer AsPC-1; format: cell-based, human; conditions: Homo sapiens, ASPC1, 72 h; AsPC-1; repeated experiment; read-out: The results of antibiotic drug inhibiting cancer cell lines (cell viability analysis), AsPC-1
# [14] = system: BCC (basal cell carcinoma); assay: Cell viability analysis, skin cancer BCC; format: cell-based, human; conditions: Homo sapiens, 72 h; BCC; repeated experiment; read-out: The results of antibiotic drug inhibiting cancer cell lines (cell viability analysis), BCC
# [15] = system: HL-60 (Acute Promyelocytic Leukemia); assay: Cell viability analysis, leukemia HL-60; format: cell-based, human; conditions: Homo sapiens, HL-60, 72 h, drug 10 μM, 72 hours, WST-1, OD450 nm; read-out: cell viability (survival rate), HL-60
# [16] = system: AGS (Gastric Adenocarcinoma); assay: Cell viability analysis, gastric cancer AGS; format: cell-based, human; conditions: Homo sapiens, 72 h
# [17] = system: U-2OS; assay: Cell viability analysis, osteosarcoma U-2OS; format: cell-based, human; conditions: Homo sapiens, 72 h; U2OS; repeated experiment; read-out: The results of antibiotic drug inhibiting cancer cell lines (cell viability analysis), U2OS
# [18] = system: LoVo (Colorectal Adenocarcinoma); assay: Cell viability analysis, colon cancer LoVo; format: cell-based, human; conditions: Homo sapiens, LoVo, 72 h
# [19] = system: 786-O (Renal adenocarcinoma); assay: Cell viability analysis, renal cancer 786-O; format: cell-based, human; conditions: Homo sapiens, 786-0, 72 h; 786-O; repeated experiment; read-out: The results of antibiotic drug inhibiting cancer cell lines (cell viability analysis), 786-O
# [20] = system: TSGH-8301 (Urinary Bladder Carcinoma); assay: Cell viability analysis, bladder cancer TSGH-8301; format: cell-based, human; conditions: Homo sapiens, 72 h
# [21] = system: MDA-MB-231 (Mammary Gland, Adenocarcinoma); assay: Cell viability analysis, breast cancer MDA-MB-231; format: cell-based, human; conditions: Homo sapiens, MDA-MB-231, 72 h; MDA-MB231; repeated experiment; read-out: The results of antibiotic drug inhibiting cancer cell lines (cell viability analysis), MDA-MB231
# [22] = system: HCT116 (p53+) (Colorectal Carcinoma)
# [23] = system: TOV-21G; assay: Cell viability analysis, ovarian cancer TOV-21G; format: cell-based, human; conditions: Homo sapiens, TOV21G, 72 h; TOV-21G; repeated experiment; read-out: The results of antibiotic drug inhibiting cancer cell lines (cell viability analysis), TOV-21G
# [24] = system: A375 (Amelanotic Melanoma); assay: Cell viability analysis, skin cancer A375; format: cell-based, human; conditions: Homo sapiens, A-375, 72 h
smiles,measurement,setting,value
CC[C@@H]([C@H](C)O)n1ncn(-c2ccc(N3CCN(c4ccc(OC[C@@H]5CO[C@@](Cn6cncn6)(c6ccc(F)cc6F)C5)cc4)CC3)cc2)c1=O [Posaconazole],viability at 10 µM,"[1]; MKN-45, repeated experiment, read-out: The results of antibiotic drug inhibiting cancer cell lines (cell viability analysis), MKN-45",92.8%
same,viability at 10 µM,"[1]; drug 10 μM, 72 hours, WST-1, OD450 nm, read-out: cell viability (survival rate), MKN-45",52%
same,viability at 10 µM,"[2]; repeated experiment, read-out: The results of antibiotic drug inhibiting cancer cell lines (cell viability analysis), HeLa",49.4%
same,viability at 10 µM,"[2]; drug 10 μM, 72 hours, WST-1, OD450 nm, read-out: cell viability (survival rate), HeLa",75.8%
same,viability at 10 µM,[3],55.4%
same,inhibition effect on different cancer cell lines,[4],significant inhibition effect
same,viability at 10 µM,[5],35.5%
same,viability at 10 µM,"[6]; A549, repeated experiment, read-out: The results of antibiotic drug inhibiting cancer cell lines (cell viability analysis), A549",18.1%
same,viability at 10 µM,"[6]; drug 10 μM, 72 hours, WST-1, OD450 nm, read-out: cell viability (survival rate), A549",42.9%
same,viability at 10 µM,[7],95.2%
same,viability at 10 µM,"[8]; MCF-7, repeated experiment, read-out: The results of antibiotic drug inhibiting cancer cell lines (cell viability analysis), MCF-7",48%
same,viability at 10 µM,"[8]; drug 10 μM, 72 hours, WST-1, OD450 nm, read-out: cell viability (survival rate), MCF7",63.6%
same,viability at 10 µM,"[9]; HepG2, repeated experiment, read-out: The results of antibiotic drug inhibiting cancer cell lines (cell viability analysis), HepG2",57.8%
same,viability at 10 µM,"[9]; drug 10 μM, 72 hours, WST-1, OD450 nm, read-out: cell viability (survival rate), HepG2",87.2%
same,viability at 10 µM,[10],62.3%
same,viability at 10 µM,[11],26.6%
same,viability at 10 µM,"[12]; H1650, repeated experiment, read-out: The results of antibiotic drug inhibiting cancer cell lines (cell viability analysis), H1650",67.5%
same,viability at 10 µM,"[12]; drug 10 μM, 72 hours, WST-1, OD450 nm, read-out: cell viability (survival rate), H1650",67%
same,viability at 10 µM,[13],32.2%
same,viability at 10 µM,[14],43.5%
same,viability at 10 µM,[15],71.3%
same,viability at 10 µM,"[16]; AGS, repeated experiment, read-out: The results of antibiotic drug inhibiting cancer cell lines (cell viability analysis), AGS",65.7%
same,viability at 10 µM,"[16]; drug 10 μM, 72 hours, WST-1, OD450 nm, read-out: cell viability (survival rate), AGS",42.7%
same,viability at 10 µM,[17],38.9%
same,viability at 10 µM,"[18]; read-out: The results of antibiotic drug inhibiting cancer cell lines (cell viability analysis), LoVo, repeated experiment",62%
same,viability at 10 µM,"[18]; read-out: cell viability (survival rate), LoVo, drug 10 μM, 72 hours, WST-1, OD450 nm",73.7%
same,viability at 10 µM,[19],18.1%
same,viability at 10 µM,"[20]; TSGH-8301, repeated experiment, read-out: The results of antibiotic drug inhibiting cancer cell lines (cell viability analysis), TSGH-8301",81.9%
same,viability at 10 µM,"[20]; drug 10 μM, 72 hours, WST-1, OD450 nm, read-out: cell viability (survival rate), TSGH",51.3%
same,viability at 10 µM,[21],60.4%
same,viability,[22],51.6%
same,viability at 10 µM,[23],37.3%
same,viability at 10 µM,"[24]; A375, repeated experiment, read-out: The results of antibiotic drug inhibiting cancer cell lines (cell viability analysis), A375",47.9%
same,viability at 10 µM,"[24]; drug 10 μM, 72 hours, WST-1, OD450 nm, read-out: cell viability (survival rate), A375",49.8%

# Reference: patent US10105357B2, “Indication of antibiotic drugs for preparation of cancer inhibition pharmaceutical composition” (LAUNX BIOMEDICAL CO., LTD., priority 2014, dated 2018)
